Test systems include ACHN; A498; HL-60; SN12C; UACC-257; HCT-15; OVCAR-5; UACC-62; TK-10; NCI-H522; SF-539; RPMI-8226; UO-31; SK-MEL-5; HT-29; HOP-62; U-251; SK-MEL-2; MDA-MB-435.
What all share (test): DTP human tumour cell line panel, 48 h

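Method: 48-hour compound exposure of cells in 96-well plates, five concentrations, linear interpolation of endpoints. At the GI50, growth is halved.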 Activity calls are given as the source filed them. No stated cut-off is given here; in the data, active = GI50 up to about 1.1 µM and inactive = higher.

For `CCN(CC)CCC(=O)N1CCc2c([nH]c3ccccc23)C1c1cccnc1` (stereo not given), the GI50 is > 100 µM (inactive) with ACHN; > 100 µM (inactive) in the assay on A498; > 100 µM (inactive) in the assay on HL-60; > 100 µM (inactive) in the assay with SN12C; > 100 µM (inactive) in the assay on UACC-257; greater than 100 µM in the assay on HCT-15. Further, the GI50 in the assay on OVCAR-5, in the assay on UACC-62, in the assay with TK-10, with NCI-H522, with SF-539 and in the assay with RPMI-8226 was > 100 µM (inactive) in each case. Further, the GI50 in the assay with UO-31, in the assay on SK-MEL-5, in the assay on HT-29, in the assay with HOP-62 and in the assay on U-251 was > 100 µM (inactive) in each case.
On to `C=C(CN(C)C)C(=O)c1ccccc1C`, for which the GI50 with ACHN was 24.7 µM (inactive); in the assay with A498, > 100 µM (inactive); with HL-60 it was 5.52 µM (inactive); in the assay on SN12C it was 46.9 µM (inactive); in the assay with UACC-257, > 55.7 µM (inactive); in the assay with SK-MEL-2, > 100 µM (inactive). In addition, the GI50 in the assay with HCT-15 is 24.9 µM; with OVCAR-5, > 100 µM (inactive); in the assay with UACC-62 it was 28.2 µM (inactive); in the assay on TK-10, > 74.6 µM (inactive); in the assay with NCI-H522, 5.69 µM (inactive); in the assay with SF-539 it was > 40.4 µM (inactive). The GI50 with RPMI-8226 was 15.7 µM (inactive); in the assay with UO-31 it was 37.4 µM (inactive); with SK-MEL-5, > 86.5 µM (inactive); in the assay with HT-29, > 100 µM (inactive); in the assay with HOP-62, > 100 µM (inactive); with U-251, > 100 µM (inactive).
On to `O=c1c2cc(Cl)ccc2sc2cccc(Cl)c12`, for which the GI50 in the assay with ACHN, with A498, in the assay with HL-60, with SN12C, with UACC-257 and in the assay on SK-MEL-2 was > 100 µM (inactive) each time. The GI50 in the assay with HCT-15 was greater than 100 µM; in the assay on OVCAR-5 it was > 100 µM (inactive); in the assay on UACC-62, > 100 µM (inactive); in the assay with TK-10 it was > 100 µM (inactive); in the assay with NCI-H522, > 100 µM (inactive); in the assay on SF-539, > 100 µM (inactive). In addition, the GI50 in the assay on RPMI-8226, in the assay with UO-31, in the assay with HT-29, with HOP-62 and with U-251 was > 100 µM (inactive) in each case.
As to `COC(=O)CC(C(C(=O)OC)C(=O)OC)N1C(=O)OCC1c1ccccc1` (stereo not given), the GI50 in the assay with ACHN, in the assay with A498, with HL-60, in the assay on SN12C, with UACC-257 and in the assay with SK-MEL-2 was > 100 µM (inactive) throughout. Besides, the GI50 with HCT-15 is greater than 100 µM; in the assay with OVCAR-5, > 100 µM (inactive); with UACC-62, > 100 µM (inactive); in the assay on TK-10, > 100 µM (inactive); with NCI-H522, > 100 µM (inactive); in the assay on SF-539, > 100 µM (inactive). Also, the GI50 was 58.6 µM (inactive) in the assay on RPMI-8226; > 100 µM (inactive) in the assay on UO-31; > 100 µM (inactive) in the assay on SK-MEL-5; > 100 µM (inactive) with HT-29; > 100 µM (inactive) with HOP-62; > 100 µM (inactive) in the assay on U-251.
For `Cc1cc2c(cc1C)[n+]([O-])c(C(=O)CC(=O)C(=O)Nc1ccccc1C(C)C)c(C)[n+]2[O-]`, the GI50 in the assay with ACHN was > 100 µM (inactive); with A498, > 100 µM (inactive); with HL-60, > 100 µM (inactive); in the assay on SN12C it was > 100 µM (inactive); with UACC-257, 1.08 µM (active); with SK-MEL-2, > 100 µM (inactive). In addition, the GI50 is greater than 100 µM in the assay on HCT-15; > 100 µM (inactive) with OVCAR-5; > 100 µM (inactive) in the assay on UACC-62; 25.5 µM (inactive) in the assay on TK-10; > 100 µM (inactive) with NCI-H522; > 100 µM (inactive) with SF-539. Also, the GI50 with RPMI-8226, in the assay with UO-31, with SK-MEL-5, with HT-29, in the assay on HOP-62 and with U-251 was > 100 µM (inactive) throughout.
For the molecule `COc1ccccc1/C=C1\CCC(CCN(C)C)(C2=CCCC2)C1=O` (stereo not given), the GI50 was 16.7 µM (inactive) with ACHN; 16.6 µM (inactive) with A498; 21.6 µM (inactive) in the assay with HL-60; 22.1 µM (inactive) in the assay with SN12C; 17.2 µM (inactive) in the assay on UACC-257; 19.5 µM (inactive) in the assay on SK-MEL-2. The GI50 was 19.2 µM in the assay with HCT-15; 19.1 µM (inactive) in the assay on OVCAR-5; 11.2 µM (inactive) in the assay with UACC-62; 18.5 µM (inactive) with TK-10; 14.1 µM (inactive) with NCI-H522; 15.1 µM (inactive) with SF-539. Also, the GI50 in the assay with RPMI-8226 was 17.8 µM (inactive); in the assay with UO-31, 17.6 µM (inactive); with SK-MEL-5, 13.8 µM (inactive); in the assay with HT-29 it was 15.3 µM (inactive); with HOP-62, 17.3 µM (inactive); in the assay with U-251, 16.6 µM (inactive).
As for `N#Cc1ccccc1NC(=O)/C(=N\Nc1ccc([N+](=O)[O-])cc1)C1C(=O)NC(=O)NC1=O`, the GI50 in the assay on ACHN was > 100 µM (inactive); with A498 it was > 100 µM (inactive); with HL-60 it was > 100 µM (inactive); in the assay with UACC-257, > 100 µM (inactive); in the assay on SK-MEL-2, > 100 µM (inactive); in the assay with HCT-15 it was greater than 100 µM. In addition, the GI50 was > 100 µM (inactive) in the assay with OVCAR-5; > 100 µM (inactive) in the assay with UACC-62; > 100 µM (inactive) in the assay on TK-10; 92.3 µM (inactive) with NCI-H522; > 100 µM (inactive) in the assay on SF-539; > 100 µM (inactive) with RPMI-8226. In addition, the GI50 was 62.8 µM (inactive) with UO-31, > 100 µM (inactive) in the assay with SK-MEL-5, > 100 µM (inactive) with HOP-62 and > 100 µM (inactive) in the assay on U-251.
For the molecule `CCNc1c(C(=O)N(CC)CC)c(=O)[nH]c2ncccc12`, the GI50 in the assay with ACHN, with A498, with HL-60, in the assay with SN12C, in the assay with UACC-257 and with SK-MEL-2 was > 100 µM (inactive) in each case. The GI50 in the assay on HCT-15 is greater than 100 µM; in the assay with OVCAR-5, > 100 µM (inactive); in the assay with UACC-62, > 100 µM (inactive); in the assay on TK-10 it was > 100 µM (inactive); with NCI-H522, > 100 µM (inactive); in the assay on SF-539, > 100 µM (inactive). Further, the GI50 with RPMI-8226, in the assay on UO-31, with SK-MEL-5, with HT-29, in the assay on HOP-62 and with U-251 was > 100 µM (inactive) each time.
With `O=[N+]([O-])c1ccc(Cl)c(C2CC(c3cccc4ccccc34)=Nc3ccccc3S2)c1` (stereo not given), the GI50 is 34.1 µM (inactive) in the assay on ACHN; > 45.2 µM (inactive) in the assay on A498; 5.21 µM (inactive) in the assay on HL-60; 21 µM (inactive) in the assay on SN12C; 31.6 µM (inactive) in the assay on UACC-257; 21.7 µM (inactive) in the assay with SK-MEL-2. Also, the GI50 with HCT-15 is 15.2 µM; in the assay with OVCAR-5 it was 42.1 µM (inactive); with UACC-62, 15.4 µM (inactive); in the assay on TK-10, 41 µM (inactive); in the assay with NCI-H522 it was 14.3 µM (inactive); in the assay with SF-539, 20.6 µM (inactive). In addition, the GI50 was 2.6 µM (inactive) with RPMI-8226; 18.4 µM (inactive) in the assay with UO-31; 16.7 µM (inactive) with SK-MEL-5; 17.3 µM (inactive) in the assay on HT-29; 55.7 µM (inactive) with HOP-62; 20.5 µM (inactive) in the assay on U-251.
Turning to `CCCCCCCCC/C=C1\CCC(CN2CCOCC2)C1=O` (stereo not given), the GI50 was 4.92 µM (inactive) in the assay with ACHN; 12 µM (inactive) in the assay on A498; 1.67 µM (inactive) with HL-60; 3.78 µM (inactive) in the assay on SN12C; 3.99 µM (inactive) in the assay on UACC-257; 5.51 µM (inactive) in the assay on SK-MEL-2. The GI50 in the assay with HCT-15 is 2.47 µM; with OVCAR-5 it was 16.9 µM (inactive); in the assay with UACC-62, 3.45 µM (inactive); in the assay with TK-10 it was 2.33 µM (inactive); in the assay with NCI-H522, 2.64 µM (inactive); with SF-539, 1.86 µM (inactive). Besides, the GI50 in the assay on RPMI-8226 was 0.303 µM (active); with UO-31 it was 4.95 µM (inactive); in the assay on MDA-MB-435, 2.36 µM (inactive); in the assay on SK-MEL-5, 6.65 µM (inactive); in the assay with HT-29, 2.88 µM (inactive); in the assay on HOP-62 it was 13.6 µM (inactive). Besides, in the assay on U-251, the GI50 is 2.02 µM (inactive).
As to `O=C(C(=O)n1ncc(Cl)c(Cl)c1=O)n1ncc(Cl)c(Cl)c1=O`, the GI50 in the assay on ACHN was 16.9 µM (inactive); in the assay on A498 it was > 100 µM (inactive); in the assay on HL-60, 5.82 µM (inactive); in the assay on SN12C it was 24.4 µM (inactive); with UACC-257, 19.5 µM (inactive); in the assay on SK-MEL-2 it was 23.3 µM (inactive). Further, the GI50 was 17.5 µM in the assay on HCT-15; > 100 µM (inactive) in the assay on OVCAR-5; 15.1 µM (inactive) in the assay with UACC-62; 27.4 µM (inactive) in the assay on TK-10; 10.7 µM (inactive) in the assay with NCI-H522; 28.8 µM (inactive) in the assay with SF-539. In addition, the GI50 in the assay with RPMI-8226 is 4.18 µM (inactive); in the assay on UO-31 it was 48.5 µM (inactive); in the assay on SK-MEL-5, 35.5 µM (inactive); in the assay on HT-29, 18.2 µM (inactive); with HOP-62 it was > 100 µM (inactive); in the assay on U-251, 35.7 µM (inactive).

These data come from ChEMBL document CHEMBL1201862, “PubChem BioAssay data set” (2004).
